Measurements from patent US9353082B2, “Pharmaceutical compounds” (BIAL—PORTELA & CA, S.A., priority 2008, dated 2016).
Structures can show the parent of a compound that is named as a salt.

Molecular target: T1, FAAH (Rattus norvegicus, UniProt P97612)
T1 construct: Frozen brains (without cerebellum) from Wistar rats were used; from tissue; host or cells: Wistar rat brain (without cerebellum), washed membrane pellets
T1 sequence (P97612 1-579): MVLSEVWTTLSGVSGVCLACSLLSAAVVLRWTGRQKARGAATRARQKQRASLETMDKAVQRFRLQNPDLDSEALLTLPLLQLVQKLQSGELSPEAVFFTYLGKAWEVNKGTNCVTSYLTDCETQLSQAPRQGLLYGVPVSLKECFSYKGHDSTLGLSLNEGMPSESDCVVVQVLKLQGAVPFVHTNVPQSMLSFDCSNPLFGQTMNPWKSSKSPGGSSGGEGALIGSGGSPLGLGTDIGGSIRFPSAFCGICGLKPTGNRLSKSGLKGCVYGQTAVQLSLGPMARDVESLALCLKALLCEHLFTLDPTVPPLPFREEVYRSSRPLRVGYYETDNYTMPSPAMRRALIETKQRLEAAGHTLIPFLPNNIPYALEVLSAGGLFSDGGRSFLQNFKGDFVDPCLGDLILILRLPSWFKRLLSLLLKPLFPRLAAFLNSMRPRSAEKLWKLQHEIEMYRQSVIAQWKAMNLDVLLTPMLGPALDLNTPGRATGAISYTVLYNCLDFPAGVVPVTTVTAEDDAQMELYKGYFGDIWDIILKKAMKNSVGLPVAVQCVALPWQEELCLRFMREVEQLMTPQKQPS
Assay: In vitro FAAH activity in rat brain membranes, 3H-AEA substrate, % of control
Type: biochemical, Wistar rats
Details: low value = strong inhibitor; for In Vitro FAAH activity, 10 uM: 10 uM test compound; for In Vitro FAAH activity, 100 nM: 100 nM test compound
Experimental: 3. Biological Efficacy of Compounds of the Invention The in vitro test was performed according to the protocol described below. The controls for both in vitro and in vivo were the reaction mix minus the test compounds. Therefore, a low value in Table 1 below for the test compounds indicates a strong inhibitor.
The in vitro pharmaceutical FAAH activity was determined according to the following method:
Frozen brains (without cerebellum) from Wistar rats were used, and each brain was homogenized in 15 ml 1 mM MgCL2, […] HEPES pH 7.0 with Potter Elvejhem (8 strokes at 500 rpm). Homogenates were centrifuged for 20 min at 36000 g at 4° C. (Beckman, 70Ti rotor). Pellets were resuspended in 15 ml of the same buffer and centrifuged under the same conditions. Pellets were resuspended in 15 ml of the same buffer and incubated for 15 min at 37° C. after which they were centrifuged for 20 min at 36000 g at 4° C. Each pellet was then resuspended in 15 ml 3 mM MgCl2, 1 mM EDTA, 50 mM Tris pH 7.4 and protein determined with BioRad Protein Assay (BioRad) using a standard curve of BSA (50-250 μg/ml). The membrane suspensions were aliquoted and stored at −80° C.
The FAAH activity was determined using AEA (labelled with 3H in the ethanolamine part of the molecule) as substrate and measuring the 3H-ethanolamine formed. Reaction mix (total volume of 200 up contained: 2 μM AEA (2 μM AEA+5 nM 3H-AEA), 0.1% fatty acid free BSA, 5 μg protein, in 1 mM EDTA, 10 mM Tris pH 7.6 and 10 μM or 0.1 μM compounds. Stock solutions of the compounds to test (10 mM) were prepared in 100% DMSO and the DMSO concentration in the assay was 0.1%. After a 15 min preincubation period at 37° C., reaction was started by the addition of the substrate solution ([…]). Reaction was carried out for 10 min before termination by the addition of 400 μl activated charcoal suspension (8 g charcoal in 32 ml 0.5 M HCl in continuous agitation). After a 30 min incubation period at room temperature with agitation, charcoal was sedimented by centrifugation in microfuge (10 min at 13000 rpm). 200 μl of the supernatant were added to 800 μl Optiphase Supermix scintillation cocktail previously distributed in 24-well plates. Counts per minute (cpm) were determined in Microbeta TriLux scintillation counter (10 min counting or until s=2).
In each assay blanks (no protein, usually below 200 cpm) and controls (no compound) were present. The results are reported in Table 1 as % of control after blank subtraction.

| Structure (SMILES) | In Vitro FAAH activity, 10 uM | In Vitro FAAH activity, 100 nM |
| --- | --- | --- |
| O=C(N1CCOCC1)n1ccnc1 [Compound 1, (1H-imidazol-1-yl)(morpholino)methanone] | 62.6 % of control | – |
| CN(C(=O)n1ccnc1)c1ccccc1 [Compound 2, N-methyl-N-phenyl-1H-imidazole-1-carboxamide] | 11.7 % of control | – |
| O=C(N1CCOCC1)n1cnc(-c2ccccc2)c1 [Compound 3, morpholino(4-phenyl-1H-imidazol-1-yl)methanone] | 4.8 % of control | – |
| O=C(Nc1ccccc1)n1ccc(-c2ccccc2)n1 [Compound 5, N,3-diphenyl-1H-pyrazole-1-carboxamide] | 91.3 % of control | – |
| COc1ccc(NC(=O)n2ccc(-c3ccccc3)n2)cc1 [Compound 6, N-(4-methoxyphenyl)-3-phenyl-1H-pyrazole-1-carboxamide] | 91.1 % of control | – |
| CN(C(=O)n1cncn1)c1ccccc1 [Compound 7, N-methyl-N-phenyl-1H-1,2,4-triazole-1-carboxamide] | 0 % of control | 17 % of control |
| CN(C(=O)n1cccn1)c1ccccc1 [Compound 8, N-methyl-N-phenyl-1H-pyrazole-1-carboxamide] | 13.2 % of control | – |
| O=C(Nc1ccccc1)n1cccn1 [Compound 9, N-phenyl-1H-pyrazole-1-carboxamide] | 78.6 % of control | – |
| O=C(Nc1ccc(Oc2ccccc2)cc1)n1ccc(-c2ccccc2)n1 [Compound 10, N-(4-phenoxyphenyl)-3-phenyl-1H-pyrazole-1-carboxamide] | 55 % of control | – |
| O=C(Nc1ccc(OCc2ccccc2)cc1)n1ccc(-c2ccccc2)n1 [Compound 11, N-(4-(benzyloxy)phenyl)-3-phenyl-1H-pyrazole-1-carboxamide] | 82.6 % of control | – |
| CN(C(=O)n1ccc(-c2ccccc2)n1)c1ccccc1 [Compound 12, N-methyl-N,3-diphenyl-1H-pyrazole-1-carboxamide] | 86 % of control | – |
| O=C(N1CCOCC1)n1ccc(-c2ccccc2)n1 [Compound 13, morpholino(3-phenyl-1H-pyrazol-1-yl)methanone] | 89.7 % of control | – |
| O=C(Nc1ccc(-c2ccccc2)cc1)n1ccc(-c2ccccc2)n1 [Compound 15, N-(biphenyl-4-yl)-3-phenyl-1H-pyrazole-1-carboxamide] | 66.9 % of control | 103.8 % of control |
| COc1ccc(N(C)C(=O)n2cnc(-c3ccccc3)c2)cc1 [Compound 17, N-(4-methoxyphenyl)-N-methyl-4-phenyl-1H-imidazole-1-carboxamide] | 65 % of control | – |
| CN(C(=O)n1cnc2ccccc21)c1ccccc1 [Compound 18, N-methyl-N-phenyl-1H-benzo[d]imidazole-1-carboxamide] | 67.9 % of control | – |
| O=C(Nc1ccccc1)n1ccc(-c2ccc(-c3ccccc3)cc2)n1 [Compound 20, 3-(biphenyl-4-yl)-N-phenyl-1H-pyrazole-1-carboxamide] | 97.3 % of control | – |
| O=C(N1CCOCC1)n1ccc(-c2cccnc2)n1 [Compound 21, morpholino(3-(pyridin-3-yl)-1H-pyrazol-1-yl)methanone hydrochloride] | 79.1 % of control | – |

| Structure (SMILES) | In Vitro FAAH activity, 10 uM | In Vitro FAAH activity, 100 nM |
| --- | --- | --- |
| COc1cccc(NC(=O)n2ccc(-c3ccc(-c4ccccc4)cc3)n2)c1 [Compound 22, 3-(biphenyl-4-yl)-N-(3-methoxyphenyl)-1H-pyrazole-1-carboxamide] | 95.8 % of control | – |
| COc1ccc(NC(=O)n2ccc(-c3ccc(-c4ccccc4)cc3)n2)cc1 [Compound 23, 3-(biphenyl-4-yl)-N-(4-methoxyphenyl)-1H-pyrazole-1-carboxamide] | 93 % of control | – |
| CN(C(=O)n1ccc(-c2cccnc2)n1)c1ccccc1 [Compound 24, N-methyl-N-phenyl-3-(pyridin-3-yl)-1H-pyrazole-1-carboxamide] | 22.9 % of control | – |
| CN(C(=O)n1ccc(-c2ccc(-c3ccccc3)cc2)n1)c1ccccc1 [Compound 25, 3-(biphenyl-4-yl)-N-methyl-N-phenyl-1H-pyrazole-1-carboxamide] | 99 % of control | – |
| CN(C(=O)n1ccnc1-c1ccccc1)c1ccccc1 [Compound 26, N-methyl-N,2-diphenyl-1H-imidazole-1-carboxamide] | 92.6 % of control | – |
| CN(C(=O)n1cnc(-c2ccc(Cl)cc2)c1)c1ccccc1 [Compound 27, 4-(4-chlorophenyl)-N-methyl-N-phenyl-1H-imidazole-1-carboxamide] | 0.2 % of control | 71.4 % of control |
| COc1ccc(-c2cn(C(=O)N(C)c3ccccc3)cn2)cc1 [Compound 28, 4-(4-methoxyphenyl)-N-methyl-N-phenyl-1H-imidazole-1-carboxamide] | 0.7 % of control | 85.1 % of control |
| CN(C(=O)n1cnc(-c2ccccc2F)c1)c1ccccc1 [Compound 30, 4-(2-fluorophenyl)-N-methyl-N-phenyl-1H-imidazole-1-carboxamide] | 0.1 % of control | 72.5 % of control |
| COc1cccc(-c2cn(C(=O)N(C)c3ccccc3)cn2)c1 [Compound 31, 4-(3-methoxyphenyl)-N-methyl-N-phenyl-1H-imidazole-1-carboxamide] | 0 % of control | 69 % of control |
| CN(C(=O)n1cnc(-c2ccc(-c3ccccc3)cc2)c1)c1ccccc1 [Compound 35, 4-(biphenyl-4-yl)-N-methyl-N-phenyl-1H-imidazole-1-carboxamide] | 103.1 % of control | – |
| COc1ccc(-c2cn(C(=O)N(C)c3ccc(F)cc3)cn2)cc1 [Compound 36, N-(4-fluorophenyl)-4-(4-methoxyphenyl)-N-methyl-1H-imidazole-1-carboxamide] | 5 % of control | – |
| O=C(N1CCCc2ccccc21)n1cnc(-c2ccccc2)c1 [Compound 37, (3,4-dihydroquinolin-1(2H)-yl)(4-phenyl-1H-imidazol-1-yl)methanone] | 51.7 % of control | – |
| CN(C(=O)n1cnc(-c2ccc(O)cc2)c1)c1ccccc1 [Compound 38, 4-(4-hydroxyphenyl)-N-methyl-N-phenyl-1H-imidazole-1-carboxamide] | 0 % of control | 83.9 % of control |
| CN(C(=O)n1cnc(-c2ccc(Cl)cc2)c1)c1ccc(F)cc1 [Compound 43, 4-(4-chlorophenyl)-N-(4-fluorophenyl)-N-methyl-1H-imidazole-1-carboxamide] | 0.1 % of control | 88 % of control |
| O=C(N1CCCc2ccccc21)n1cnc(-c2ccc(F)cc2)c1 [Compound 44, (3,4-dihydroquinolin-1(2H)-yl)(4-(4-fluorophenyl)-1H-imidazol-1-yl)methanone] | – | 97.8 % of control |
| CN(C(=O)n1cnc(-c2ccccc2F)c1)c1ccc(F)cc1 [Compound 45, 4-(2-fluorophenyl)-N-(4-fluorophenyl)-N-methyl-1H-imidazole-1-carboxamide] | – | 83 % of control |
